Source: publication PMC11488110 (Theranostics, 2024)
“Also recorded” adds a separate entry of the source.

What was measured:
hPPARδ = biological target: T1, hPPARδ (Homo sapiens, UniProt Q03181); test: In vitro co-transfection (PPRE-luciferase) assay in CV-1 cells, hPPARδ; assay type: cell-based
T1 construct: expressed in transfected cells; host or cells: CV-1 monkey kidney cells
T1 sequence (Q03181 1-441): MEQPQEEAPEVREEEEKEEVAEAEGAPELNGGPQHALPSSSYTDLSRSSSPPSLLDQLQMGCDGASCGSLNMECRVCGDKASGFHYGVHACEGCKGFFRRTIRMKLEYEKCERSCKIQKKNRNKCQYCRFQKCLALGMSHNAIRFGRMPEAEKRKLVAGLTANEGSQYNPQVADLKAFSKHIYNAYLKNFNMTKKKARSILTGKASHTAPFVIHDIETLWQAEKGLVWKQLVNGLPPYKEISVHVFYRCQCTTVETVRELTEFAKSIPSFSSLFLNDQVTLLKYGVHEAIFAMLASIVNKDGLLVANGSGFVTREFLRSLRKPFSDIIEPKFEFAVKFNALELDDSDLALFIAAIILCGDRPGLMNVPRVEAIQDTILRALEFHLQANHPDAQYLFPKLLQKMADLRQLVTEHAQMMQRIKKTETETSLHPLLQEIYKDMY

CYP1A2 = biological target: T2, CYP1A2 (Homo sapiens, UniProt P05177); test: CYP inhibition assay, human liver microsomes; assay type: in vitro ADME
T2 construct: performed using 0.25 mg/mL human liver microsomes; from tissue; host or cells: human liver microsomes
T2 sequence (P05177 1-516): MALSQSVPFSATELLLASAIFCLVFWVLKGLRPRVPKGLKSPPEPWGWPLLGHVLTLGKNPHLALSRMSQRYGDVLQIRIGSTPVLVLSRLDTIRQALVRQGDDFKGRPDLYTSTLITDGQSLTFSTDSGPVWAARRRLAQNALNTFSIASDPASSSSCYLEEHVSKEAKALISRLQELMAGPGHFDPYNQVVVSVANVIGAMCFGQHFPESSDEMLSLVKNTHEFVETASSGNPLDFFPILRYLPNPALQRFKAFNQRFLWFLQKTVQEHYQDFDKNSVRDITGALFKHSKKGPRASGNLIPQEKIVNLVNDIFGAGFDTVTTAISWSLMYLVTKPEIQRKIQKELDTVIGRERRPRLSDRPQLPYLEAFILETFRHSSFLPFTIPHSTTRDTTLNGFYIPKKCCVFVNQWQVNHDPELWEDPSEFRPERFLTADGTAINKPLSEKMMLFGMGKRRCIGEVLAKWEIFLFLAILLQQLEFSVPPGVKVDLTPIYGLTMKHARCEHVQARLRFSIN
Experimental: (§1) All incubations were performed in duplicate, and the mean values were used for analysis. Cocktail incubations were carried out using […] probe substrates of CYP1A2, CYP2C9, CYP2C19, CYP2D6, and CYP3A4: phenacetin, tolbutamide, mephenytoin, dextromethorphan and midazolam respectively, followed by tandem mass spectrometry. Briefly, an incubation reaction was performed using 0.25 mg/mL human liver microsomes in a final incubation volume of 100 μL. The incubation medium contained 100 mM phosphate buffer (pH 7.4) and probe substrates. The incubation mixture containing various inhibitors (10 μM) was pre-incubated for 5 min. After pre-incubation, an NADPH-regenerating system was added. After incubation at 37 °C for 15 min, the reaction was stopped by placing the incubation tubes on ice and adding 40 μL of ice-cold acetonitrile. The incubation mixtures were centrifuged at 10,000 g and 4 °C for 5 min. Aliquots of the supernatant were injected onto an LC-MS/MS system. The CYP-mediated activities in the presence of inhibitors were expressed as a percentage of the corresponding control value.
(§2) Ta b l e S2 . CYP inhibition, microsomal stability, and hERG in hibition of 5a .
(§3) CYP inhibitiona Microsomal stabilityb
(§4) ( % of c ont rol ac ti vit y) (% of remaining compound) hERG inhibitionc (IC50, μ M) […]
(§5) aCytochrome P450 (CYP450) enzyme activity was measured by incubating CYP450 enzyme isotype-specific substrates and liver microsomes in the presence of the test compound (10 μM) for 15 min. Data are expressed as percent of CYP enzyme activity relative to that of t he v ehicle-treated control. […]
(§6) a- cThe results of these three assays were obtained through the in vitro ADME/Tox study service of KMEDIhub, a contract research organization (CRO). The reported measurements are the mean of […]

CYP2C19 = biological target: T3, CYP2C19 (Homo sapiens, UniProt P33261); test: CYP inhibition assay, human liver microsomes; assay type: in vitro ADME
T3 construct: performed using 0.25 mg/mL human liver microsomes; from tissue; host or cells: human liver microsomes
T3 sequence (P33261 whole entry): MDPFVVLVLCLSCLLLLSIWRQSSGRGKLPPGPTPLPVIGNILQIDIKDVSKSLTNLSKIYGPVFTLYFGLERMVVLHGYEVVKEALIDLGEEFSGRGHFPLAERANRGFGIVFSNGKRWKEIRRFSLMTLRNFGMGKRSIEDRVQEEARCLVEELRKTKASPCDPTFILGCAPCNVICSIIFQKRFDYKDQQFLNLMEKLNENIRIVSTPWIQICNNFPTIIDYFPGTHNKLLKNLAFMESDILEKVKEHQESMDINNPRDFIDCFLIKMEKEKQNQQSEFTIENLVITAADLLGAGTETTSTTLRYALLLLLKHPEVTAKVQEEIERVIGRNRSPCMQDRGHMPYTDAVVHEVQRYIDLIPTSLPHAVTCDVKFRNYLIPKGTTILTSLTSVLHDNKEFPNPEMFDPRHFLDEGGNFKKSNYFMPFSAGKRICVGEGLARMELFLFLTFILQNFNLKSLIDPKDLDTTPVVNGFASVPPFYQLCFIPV
Experimental: as §1, §2, §3, §4, §5, §6

CYP2C9 = biological target: T4, CYP2C9 (Homo sapiens, UniProt P11712); test: CYP inhibition assay, human liver microsomes; assay type: in vitro ADME
T4 construct: performed using 0.25 mg/mL human liver microsomes; from tissue; host or cells: human liver microsomes
T4 sequence (P11712 whole entry): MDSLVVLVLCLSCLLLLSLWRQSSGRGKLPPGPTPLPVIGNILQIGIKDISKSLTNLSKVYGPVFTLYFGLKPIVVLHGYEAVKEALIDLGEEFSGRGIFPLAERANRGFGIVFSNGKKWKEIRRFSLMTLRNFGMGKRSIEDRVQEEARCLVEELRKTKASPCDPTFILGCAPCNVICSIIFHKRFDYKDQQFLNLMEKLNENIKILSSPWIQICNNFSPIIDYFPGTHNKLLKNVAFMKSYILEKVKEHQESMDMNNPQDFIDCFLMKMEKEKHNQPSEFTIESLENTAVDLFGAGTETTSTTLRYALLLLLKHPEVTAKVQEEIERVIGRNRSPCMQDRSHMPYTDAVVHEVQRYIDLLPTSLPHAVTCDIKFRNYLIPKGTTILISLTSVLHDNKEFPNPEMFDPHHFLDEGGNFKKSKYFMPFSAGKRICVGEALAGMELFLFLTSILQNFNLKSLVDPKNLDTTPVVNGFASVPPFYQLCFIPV
Experimental: as §1, §2, §3, §4, §5, §6

CYP2D6 = biological target: T5, CYP2D6 (Homo sapiens, UniProt P10635); test: CYP inhibition assay, human liver microsomes; assay type: in vitro ADME
T5 construct: performed using 0.25 mg/mL human liver microsomes; from tissue; host or cells: human liver microsomes
T5 sequence (P10635 whole entry): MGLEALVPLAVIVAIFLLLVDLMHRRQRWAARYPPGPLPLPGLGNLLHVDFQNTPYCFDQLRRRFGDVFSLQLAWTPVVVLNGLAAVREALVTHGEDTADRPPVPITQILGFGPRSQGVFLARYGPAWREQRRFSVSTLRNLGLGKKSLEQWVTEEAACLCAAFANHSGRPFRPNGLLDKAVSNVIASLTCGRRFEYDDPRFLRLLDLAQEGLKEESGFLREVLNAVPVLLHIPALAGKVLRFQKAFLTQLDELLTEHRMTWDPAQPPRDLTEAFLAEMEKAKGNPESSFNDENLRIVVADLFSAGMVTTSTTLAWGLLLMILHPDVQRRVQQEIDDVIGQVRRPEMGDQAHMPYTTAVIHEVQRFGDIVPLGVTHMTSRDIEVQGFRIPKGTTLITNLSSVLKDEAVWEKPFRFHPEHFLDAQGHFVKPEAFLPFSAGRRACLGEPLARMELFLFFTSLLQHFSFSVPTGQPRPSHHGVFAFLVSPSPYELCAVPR
Experimental: as §1, §2, §3, §4, §5, §6

CYP3A4 = biological target: T6, CYP3A4 (Homo sapiens, UniProt P08684); test: CYP inhibition assay, human liver microsomes; assay type: in vitro ADME
T6 construct: performed using 0.25 mg/mL human liver microsomes; from tissue; host or cells: human liver microsomes
T6 sequence (P08684 whole entry): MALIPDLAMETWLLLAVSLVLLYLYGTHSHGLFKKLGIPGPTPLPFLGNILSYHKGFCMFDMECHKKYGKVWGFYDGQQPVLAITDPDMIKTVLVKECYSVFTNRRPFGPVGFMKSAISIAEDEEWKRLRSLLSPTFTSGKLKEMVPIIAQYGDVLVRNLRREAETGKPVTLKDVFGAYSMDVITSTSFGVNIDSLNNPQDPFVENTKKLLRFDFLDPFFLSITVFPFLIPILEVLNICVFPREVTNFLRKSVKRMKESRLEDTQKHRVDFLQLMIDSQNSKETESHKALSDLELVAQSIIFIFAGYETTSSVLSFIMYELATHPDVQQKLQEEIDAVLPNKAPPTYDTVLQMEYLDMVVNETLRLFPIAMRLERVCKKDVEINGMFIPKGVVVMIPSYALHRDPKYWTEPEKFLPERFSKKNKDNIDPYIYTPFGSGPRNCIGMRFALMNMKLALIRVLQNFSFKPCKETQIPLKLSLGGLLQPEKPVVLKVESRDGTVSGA
Experimental: as §1, §2, §3, §4, §5, §6

BV-2 microglial cells = test: Cytotoxicity assay (EZ-Cytox) in BV-2 microglia; assay type: cell-based, mouse; details: up to 20 μM, 24 h
Experimental: The in vitro cytotoxicity of 5a was evaluated using the EZ-Cytox assay kit (DoGenBio, South Korea). […] Absorbance was measured at 450 nm, after 1 h of incubation with EZ-Cytox containing water-soluble tetrazolium salt (WST), using a SpectraMax®i3 microplate reader (Molecular Devices).

primary mouse astrocytes = test: LPS/IFNγ-induced inflammatory responses in primary mouse astrocytes; assay type: cell-based
[1] = Pharmacokinetics in Sprague-Dawley rats; details: rat, plasma
[2] = 10 μM, 15 min, human liver microsomes
[3] = stated for the five CYP subtypes, tested at 10 µM

Cc1cc(SCc2[se]c(-c3ccc(C(F)(F)F)cc3)nc2C)ccc1OCC(=O)O [Compound 5a, {2-Methyl-4-[4-methyl-2-(4-trifluoromethyl-phenyl)-selenazol-5-yl-methylsulfanyl]-phenoxy}-acetic acid]
EC50 (hPPARδ; co-transfection assay, CV-1 cells, 24 h, read-out: Potency (EC50) hPPARδ): 0.7 nM | Selectivity index hPPARα/hPPARδ (hPPARδ; ratio EC50(hPPARα)/EC50(hPPARδ)): >14000 | Selectivity index hPPARγ/hPPARδ (hPPARδ; ratio EC50(hPPARγ)/EC50(hPPARδ)): >14000 | CYP inhibition 1A2 (% of control activity) (CYP1A2; [2]): 78.1 % of control activity | IC50 (CYP1A2; [3]): > 10 µM | CYP inhibition 2C19 (% of control activity) (CYP2C19; [2]): 88.6 % of control activity | IC50 (CYP2C19; [3]): > 10 µM | CYP inhibition 2C9 (% of control activity) (CYP2C9; [2]): 63.6 % of control activity | IC50 (CYP2C9; [3]): > 10 µM | CYP inhibition 2D6 (% of control activity) (CYP2D6; [2]): 92.1 % of control activity | IC50 (CYP2D6; [3]): > 10 µM | CYP inhibition 3A4 (% of control activity) (CYP3A4; [2]): 94.9 % of control activity | IC50 (CYP3A4; [3]): > 10 µM | Viability of BV-2 cells (BV-2 microglial cells): did not affect the viability; also recorded: less cytotoxic than GW501516 | LPS/IFNγ-induced NO release (primary mouse astrocytes; primary astrocytes): significantly reduced NO release | LPS/IFNγ-induced production of TNF-α, IL-1β and IL-6 (primary mouse astrocytes; primary astrocytes): suppressed the production of pro-inflammatory cytokines | Anti-inflammatory effects on astrocytes compared with GW501516 (primary mouse astrocytes; same concentration): superior to those of GW501516 | AUC ([1]; iv, 5 mg/kg): 7350 ng·h/mL | Vd ([1]; iv, 5 mg/kg): 2.3 ± 0.1 L/kg | clearance ([1]; iv, 5 mg/kg): 10.2 mL/min/kg | half-life ([1]; iv, 5 mg/kg): 138 ± 36 min | bioavailability ([1]; oral, 10 mg/kg): 90.7% | AUC ([1]; po, 10 mg/kg): 13300 ng·h/mL | Cmax ([1]; po, 10 mg/kg): 2740 ng/mL
